Data reported in US11046716B2, “Beta-lactamase inhibitors” (priority 2015, dated 2021).

Key:
[1] = system: E. coli expressing the Class A Extended Spectrum Beta-Lactamase (ESBL) CTX-M-15; assay: Broth microdilution MIC assay with ceftazidime, E. coli CTX-M-15; assay type: cell-based; conditions: Fixed CAZ (ceftazidime) 4 μg/mL; E. coli ESBL4 CTX-M-15
From the text: (§1) To determine the ability of test compounds to potentiate the inhibition of the growth of bacterial strains that produce beta-lactamase enzymes in the presence of a β-lactam antibiotic, classic cell based broth microdilution MIC assays were employed. Six bacteria strains producing beta-lactamase enzymes were used: E. coli expressing the Class A Extended Spectrum Beta-Lactamase (ESBL) CTX-M-15, E. cloacae expressing the Class C P99, K. pneumoniae expressing the Class A carbapenemase KPC-2, P. aeruginosa expressing the Class B carbapenemase VIM-2, K. pneumoniae expressing the class A carbapenemase KPC-2 and the class B carbapenemase VIM-4, and K. pneumoniae producing the Class D carbapenemase OXA-48. The assay was conducted in Cation Adjusted Mueller Hinton Broth (CAMHB, BD #212322, BD Diagnostic Systems, Sparks, Md.). Bacteria strains were grown for 3-5 hours in CAMBH broth. Test compounds (Examples 1-94) were added to a microtiter plate in 2-fold serial dilutions in CAMHB in a final concentration range of 16 μg/mL to 0.125 μg/ml. An overlay of CAMHB containing a Beta-lactam was added to the compounds at a final static concentration of 4 μg/ml. […] In addition to the titration of test compounds the MICs of a panel of control beta-lactams is also tested to ensure the strains are behaving consistently from test to test. Once the test compound and antibiotics are added the plates can be inoculated according to CLSI broth microdilution method. After inoculation the plates are incubated for 16-20 hours at 37° C. then the Minimal Inhibitory Concentration (MIC) of the test compound is determined visually.
(§2) Using the methodology described above, examples of the current invention were evaluated for their ability to inhibit the growth of β-lactamase-producing bacteria in the presence of a β-lactam antibiotic.

[2] = system: K. pneumoniae expressing the class A carbapenemase KPC-2 and the class B carbapenemase VIM-4; assay: Broth microdilution MIC assay with meropenem, K. pneumoniae KPC-2 and VIM-4; assay type: cell-based; conditions: Fixed Mero (meropenem) 4 μg/mL; K. p. A-1797 KPC-2 VIM-4
From the text: as §1, §2

KPC-2 = biological target: T1, KPC-2 (Klebsiella pneumoniae, UniProt Q9F663); assay: β-lactamase enzyme inhibition assay, KPC-2 (imipenem substrate); assay type: biochemical; conditions: Class A; imipenem substrate, 300 nm; read-out: KPC-2
T1 construct: made in house; host or cells: E. coli BL21(DE3)
T1 sequence (Q9F663 25-293, looked up): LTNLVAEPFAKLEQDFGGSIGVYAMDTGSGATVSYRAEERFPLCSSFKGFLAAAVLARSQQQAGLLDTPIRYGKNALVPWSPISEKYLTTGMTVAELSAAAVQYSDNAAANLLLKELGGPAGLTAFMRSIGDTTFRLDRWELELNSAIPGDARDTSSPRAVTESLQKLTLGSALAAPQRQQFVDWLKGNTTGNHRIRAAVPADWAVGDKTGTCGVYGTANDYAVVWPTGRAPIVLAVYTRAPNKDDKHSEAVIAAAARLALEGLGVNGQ
Protocol: (§3) For SHV-5, Kpc-2, p99AmpC and OXA-1 β-lactamases, E. coli BL21(DE3) bacterial cells carrying expression plasmids (expressed as native untagged proteins) for the individual β-lactamases were grown in 1 L of Superbroth (Teknova Inc. Hollister, Calif.) supplemented with 100 μg/ml kanamycin selection and 1×5052 (0.5% glycerol, 0.05% glucose and 0.2% α-lactose) at 35° C. for 18-20 hours. Cells were harvested by centrifugation (4,000×g, 4° C., 20 min), resuspended in 50 ml of 10 mM HEPES pH 7.5 ( 1/20 of the initial volume). The cells were lysed by sonication (5 pulses of 45 seconds) at 45 W on ice. The lysates were clarified by centrifugation at 10,000×g for 40 minutes at 4° C. Samples were diluted 5-fold in 50 mM sodium acetate pH 5.0, stored overnight at 4° C., after which they were centrifuged at 10,000×g for 30 minutes to clarify, and filtered through 0.45 μm filters. The samples were loaded onto a 5 ml Capto S sepharose cation exchange column (GE Healthcare) pre-equilibrated with 50 mM sodium acetate pH 5.0. The column was washed with 5 column volumes of 50 mM sodium acetate pH 5.0 to wash out unbound protein and a linear gradient of NaCl (0 to 500 mM) was used to elute the protein (over 16 CV) from the column. Fractions were assayed for β-lactamase activity using Centa (Calbiochem, Gibbstown, N.J.) or Nitrocefin (EMD Millipore chemicals, Darmstadt, Germany) as a reporter β-lactamase substrate for activity in the isolated fractions. Active fractions were pooled, concentrated and further purified by gel filtration chromatography on a Superdex 75 prep grade gel filtration column (GE Healthcare, Piscataway, N.J.) pre-equilibrated in 50 mM Hepes pH 7.5, 150 mM NaCl. Active fractions were pooled concentrated, quantitated by BCA protein determination (Thermo Scientific, Rockford, Ill.), dialyzed into PBS and frozen at −80° C. in 20% glycerol until use.
(§4) An equal volume of diluted enzyme stock was added, and the plates were incubated at 37° C. for 15 min. Nitrocefin was used as substrate for p99 AmpC, VIM-2 and OXA-1 and dispensed into each well at a final concentration of 100 μM. Absorbance at 486 nm was immediately monitored for 10 min using a Biotek Powerwave XS2 microplate spectrophotometer using the GEN5 software package (Biotek Instruments, Winooski Vt.). In an analogous fashion, imipenem was used as substrate for Kpc-2 and Cefotaxime was used for SHV-5, while changes in absorbance upon hydrolysis of the β-lactam ring were monitored at 300 nm and 260 nm respectively in UV-transparent 96-well microtiter assay plates. Maximum rates of hydrolysis were compared to those in control wells (without inhibitors), and percentages of enzyme inhibition were calculated for each concentration of inhibitor. The concentration of inhibitor needed to reduce the initial rate of hydrolysis of substrate by 50% (IC50) was calculated as the residual activity of β-lactamase at 486 nm using GraFit version 7 kinetics software package (Erithacus Software, Surrey, UK).
(§5) Using the methodology described above, examples of the current invention were evaluated for their ability to inhibit β-lactamase enzymes from all four Ambler classifications (A through D). […] NT=Not tested.

[3] = system: K. pneumoniae expressing the Class A carbapenemase KPC-2; assay: Broth microdilution MIC assay with meropenem, K. pneumoniae KPC-2; assay type: cell-based; conditions: Fixed Mero (meropenem) 4 μg/mL; K. p. 156319 KPC-3
From the text: as §1, §2

VIM-2 = biological target: T2, VIM-2 (Escherichia coli, UniProt Q5U7L7); assay: β-lactamase enzyme inhibition assay, VIM-2 (nitrocefin substrate); assay type: biochemical; conditions: Class B; nitrocefin substrate, 486 nm; read-out: VIM-2
T2 construct: made in house; host or cells: E. coli BL21(DE3)
Protocol: For Vim-2 metallo β-lactamase, the procedure was identical with the following exceptions, first the protein was not pH adjusted to pH 5 with 50 mM sodium acetate, second, the chromatography step was changed to a 5 ml Q sepharose anion exchange column pre-equilibrated with 50 mM Hepes pH 7.5, and elution of the protein was achieved by a linear gradient of NaCl (0-600 mM). Finally, the VIM-2 purification required a second run (3rd step) on the Q sepharose anion exchange column to achieve acceptable purity (>90%).
as §4, §5

[4] = system: P. aeruginosa expressing the Class B carbapenemase VIM-2; assay: Broth microdilution MIC assay with meropenem, P. aeruginosa VIM-2; assay type: cell-based; conditions: Fixed Mero (meropenem) 4 μg/mL; P. aerug. 2775 VIM-2
From the text: as §1, §2

[5] = system: E. cloacae expressing the Class C P99; assay: Broth microdilution MIC assay with ceftazidime, E. cloacae P99; assay type: cell-based; conditions: Fixed CAZ (ceftazidime) 4 μg/mL; E. cl. 144200 p99 AmpC
From the text: as §1, §2

[6] = system: K. pneumoniae producing the Class D carbapenemase OXA-48; assay: Broth microdilution MIC assay with meropenem, K. pneumoniae OXA-48; assay type: cell-based; conditions: Fixed Mero (meropenem) 4 μg/mL; K. p. 11978 OXA-48
From the text: as §1, §2

OXA-48 = OXA-48 (UniProt Q6XEC0); assay: β-lactamase enzyme inhibition assay, Class D oxacillinase; assay type: biochemical; conditions: read-out: OXA-48
AmpC = biological target: T3, AmpC (Enterobacter cloacae, UniProt P05364); assay: β-lactamase enzyme inhibition assay, p99 AmpC (nitrocefin substrate); assay type: biochemical
T3 construct: made in house; host or cells: E. coli BL21(DE3)
T3 sequence (P05364 21-381): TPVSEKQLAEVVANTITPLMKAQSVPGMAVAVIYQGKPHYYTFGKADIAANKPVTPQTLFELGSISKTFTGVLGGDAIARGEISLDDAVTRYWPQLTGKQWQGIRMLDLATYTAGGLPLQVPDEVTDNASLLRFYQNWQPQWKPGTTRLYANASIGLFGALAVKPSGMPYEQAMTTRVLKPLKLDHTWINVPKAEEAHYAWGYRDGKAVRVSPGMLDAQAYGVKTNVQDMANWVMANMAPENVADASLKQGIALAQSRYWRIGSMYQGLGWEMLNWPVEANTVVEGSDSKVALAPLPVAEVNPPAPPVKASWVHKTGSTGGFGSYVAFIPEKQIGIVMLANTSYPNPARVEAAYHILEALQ
Protocol: as §3, §4, §5

SHV-5 = biological target: T4, SHV-5 (Klebsiella pneumoniae, UniProt P0A3M1); assay: β-lactamase enzyme inhibition assay, SHV-5 (cefotaxime substrate); assay type: biochemical
T4 construct: made in house; host or cells: E. coli BL21(DE3)
T4 sequence (P0A3M1 22-286): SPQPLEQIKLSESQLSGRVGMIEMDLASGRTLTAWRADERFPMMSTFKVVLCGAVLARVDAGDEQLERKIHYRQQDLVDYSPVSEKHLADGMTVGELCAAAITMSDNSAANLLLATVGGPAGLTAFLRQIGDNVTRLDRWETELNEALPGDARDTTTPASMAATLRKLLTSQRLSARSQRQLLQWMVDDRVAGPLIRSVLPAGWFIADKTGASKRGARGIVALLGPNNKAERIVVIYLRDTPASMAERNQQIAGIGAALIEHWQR
Protocol: as §3, §4, §5

SMILES	MIC (μg/mL) of Exemplary Compounds in presence of fixed β-lactams: E. coli ESBL4 CTX-M-15 [1]	MIC (μg/mL) of Exemplary Compounds in presence of fixed β-lactams: K. p. A-1797 KPC-2 VIM-4 [2]	IC50 (KPC-2)	MIC (μg/mL) of Exemplary Compounds in presence of fixed β-lactams: K. p. 156319 KPC-3 [3]	IC50 (VIM-2)	MIC (μg/mL) of Exemplary Compounds in presence of fixed β-lactams: P. aerug. 2775 VIM-2 [4]	MIC (μg/mL) of Exemplary Compounds in presence of fixed β-lactams: E. cl. 144200 p99 AmpC [5]	MIC (μg/mL) of Exemplary Compounds in presence of fixed β-lactams: K. p. 11978 OXA-48 [6]	IC50 (OXA-48)	IC50 (AmpC)	IC50 (SHV-5)
O=C(Cn1cc(CO)nn1)N[C@H]1Cc2cccc(C(=O)O)c2OB1O [Example 1, (R)-2-hydroxy-3-(2-(4-(hydroxymethyl)-1H-1,2,3-triazol-1-yl)acetamido)-3,4-dihydro-2H-benzo[e][1,2]oxaborinine-8-carboxylic acid]	C (C represents an MIC of <1 μg/mL)	B (B represents an MIC between 1 and 16 μg/mL inclusive)	< 100 nM	B (B represents an MIC between 1 and 16 μg/mL inclusive)	1000 to 10000 nM	B (B represents an MIC between 1 and 16 μg/mL inclusive)	C (C represents an MIC of <1 μg/mL)	B (B represents an MIC between 1 and 16 μg/mL inclusive)	100 to 1000 nM	< 100 nM	< 100 nM
O=C(Cn1cc(-c2ccccn2)nn1)N[C@H]1Cc2cccc(C(=O)O)c2OB1O [Example 10, (R)-2-hydroxy-3-(2-(4-(pyridin-2-yl)-1H-1,2,3-triazol-1-yl)acetamido)-3,4-dihydro-2H-benzo[e][1,2]oxaborinine-8-carboxylic acid]	C (C represents an MIC of <1 μg/mL)	A (A represents an MIC>16 μg/mL)	< 100 nM	B (B represents an MIC between 1 and 16 μg/mL inclusive)	1000 to 10000 nM		C (C represents an MIC of <1 μg/mL)	B (B represents an MIC between 1 and 16 μg/mL inclusive)	< 100 nM	< 100 nM	< 100 nM
NCc1nnnn1CC(=O)N[C@H]1Cc2cccc(C(=O)O)c2OB1O [Example 17, (R)-3-(2-(5-(aminomethyl)-1H-tetrazol-1-yl)acetamido)-2-hydroxy-3,4-dihydro-2H-benzo[e][1,2]oxaborinine-8-carboxylic acid]	C (C represents an MIC of <1 μg/mL)	B (B represents an MIC between 1 and 16 μg/mL inclusive)	< 100 nM	B (B represents an MIC between 1 and 16 μg/mL inclusive)	< 100 nM	C (C represents an MIC of <1 μg/mL)	C (C represents an MIC of <1 μg/mL)	B (B represents an MIC between 1 and 16 μg/mL inclusive)	100 to 1000 nM		
O=C(Cn1cncn1)N[C@H]1Cc2cccc(C(=O)O)c2OB1O [Example 18, (R)-3-(2-(1H-1,2,4-triazol-1-yl)acetamido)-2-hydroxy-3,4-dihydro-2H-benzo[e][1,2]oxaborinine-8-carboxylic acid]	C (C represents an MIC of <1 μg/mL)	B (B represents an MIC between 1 and 16 μg/mL inclusive)	< 100 nM	C (C represents an MIC of <1 μg/mL)	100 to 1000 nM	B (B represents an MIC between 1 and 16 μg/mL inclusive)	C (C represents an MIC of <1 μg/mL)	B (B represents an MIC between 1 and 16 μg/mL inclusive)	1000 to 10000 nM		
Cc1nnn(CC(=O)N[C@H]2Cc3cccc(C(=O)O)c3OB2O)c1CN [Example 120, (R)-3-(2-(5-(aminomethyl)-4-methyl-1H-1,2,3-triazol-1-yl)acetamido)-2-hydroxy-3,4-dihydro-2H-benzo[e][1,2]oxaborinine-8-carboxylic acid]	C (C represents an MIC of <1 μg/mL)	B (B represents an MIC between 1 and 16 μg/mL inclusive)	< 100 nM	B (B represents an MIC between 1 and 16 μg/mL inclusive)	< 100 nM		C (C represents an MIC of <1 μg/mL)	B (B represents an MIC between 1 and 16 μg/mL inclusive)	< 100 nM	< 100 nM	100 to 1000 nM
